Experimental data reported in patent US20020049223A1, “Quinoline and naphthyridine carboxylic acid antibacterials” (priority 1999, published 2002).

Key:
Assay in all cases: Assay B: in vitro antibacterial activity, broth microdilution MIC (NCCLS)
Assay type in all cases: cell-based
[1] = system: Enterococcus faecalis PIU 1967; settings: Table 2, Assay B, cation-adjusted Mueller Hinton broth, 35° C., 16 to 20 hr; code B = Enterococcus faecalis PIU 1967; unit assumed
Description: (§1) Assay B. Determination of Biological Activity In Vitro Assay of Antibacterial Activity
(§2) Representative compounds of the invention were assayed in vitro for antibacterial activity. The susceptibilities of aerobic, nonfastidious species were determined visually by broth microdilution as described by the National Committee for Clinical Laboratory Standards (NCCLS) (National Committee for Clinical Laboratory Standards. 1997. Methods for dilution antimicrobial susceptibility tests for bacteria that grow aerobically. Approved standard M7-A4. National Committee for Clinical Laboratory Standards. Wayne, Pa.). In brief, serial two-fold dilutions of test compounds were made in cation-adjusted Mueller Hinton broth at two-times the final concentration. Inocula were prepared from overnight cultures of test strains. Tests were inoculated with a suspension of bacteria in Mueller Hinton broth to achieve a final density of approximately 5×10^5 CFU/mL. Tests were incubated at 35° C. in ambient air for 16 to 20 hr. Minimum Inhibitory Concentrations (MICs) were determined as the lowest drug concentration completely inhibiting growth. Ciprofloxacin was included as a control. For testing S. pneumoniae, the cation-adjusted Mueller Hinton broth was supplemented with 3% lysed horse blood and the incubation period was extended to 20 to 24 hr. For testing H. influenzae, the cation-adjusted Mueller Hinton broth was supplemented with 5 g/L yeast extract, […] and 15 mg/L NAD and incubation was extended to 20 to 24 hr..

[2] = system: Escherichia coli JUHL; settings: Table 2, Assay B, cation-adjusted Mueller Hinton broth, 35° C., 16 to 20 hr; code D = Escherichia coli JUHL; unit assumed
Description: as §1, §2

[3] = system: Haemophilus influenzae DILL AMP R; settings: Table 2, Assay B, Mueller Hinton broth with yeast extract, hematin and NAD, 20 to 24 hr; code E = Haemophilus influenzae DILL AMP R; unit assumed
Description: as §1, §2

[4] = system: Staphylococcus aureus ATCC 6538P; settings: Table 2, Assay B, cation-adjusted Mueller Hinton broth, 35° C., 16 to 20 hr; code A = Staphylococcus aureus ATCC 6538P; unit assumed
Description: as §1, §2

[5] = system: Streptococcus pneumoniae ATCC 6303; settings: Table 2, Assay B, Mueller Hinton broth with 3% lysed horse blood, 20 to 24 hr; code F = Streptococcus pneumoniae ATCC 6303; unit assumed
Description: as §1, §2

SMILES | Antibacterial Activity (MIC's), B [1] | Antibacterial Activity (MIC's), D [2] | Antibacterial Activity (MIC's), E [3] | Antibacterial Activity (MIC's), A [4] | Antibacterial Activity (MIC's), F [5]
COc1c(-c2cc3c(s2)CCC(=NO)C3)ccc2c(=O)c(C(=O)O)cn(C3CC3)c12 [Example 55, 1-cyclopropyl-7-((5E/Z)-5-(hydroxyimino)-4,5,6,7-tetrahydro-1-benzothien-2-yl)-8-methoxy-4-oxo-1,4-dihydro-3-quinolinecarboxylic acid] | 0.125 µg/mL | 0.5 µg/mL | 0.06 µg/mL | ≤ 0.004 µg/mL | 0.125 µg/mL
CON=C1CCc2sc(-c3ccc4c(=O)c(C(=O)O)cn(C5CC5)c4c3OC)cc2C1 [Example 56, 1-cyclopropyl-8-methoxy-7-((5E/Z)-5-(methoxnimino)-4,5,6,7-tetrahydro-1-benzothien-2-yl)-4-oxo-1,4-dihydro-3-quinolinecarboxylic acid] | 0.5 µg/mL | 4 µg/mL | 0.25 µg/mL | 0.03 µg/mL | 0.125 µg/mL
COc1c(-c2cc3c(s2)CCC(Br)C3=O)ccc2c(=O)c(C(=O)O)cn(C3CC3)c12 (centres unmarked) [Example 58, 7-(5-bromo-4-oxo-4,5,6,7-tetrahydro-1-benzothien-2-yl)-1-cyclopropyl-8-methoxy-4-oxo-1,4-dihydro-3-quinolinecarboxylic acid] | 0.06 µg/mL | 0.25 µg/mL | 0.015 µg/mL | 0.004 µg/mL | 0.06 µg/mL
COc1c(-c2cc3c(s2)CCCC3CN)ccc2c(=O)c(C(=O)O)cn(C3CC3)c12 (centres unmarked) [Example 130, 7-(4-(aminomethyl)-4,5,6,7-tetrahydro-1-benzothien-2-yl)-1-cyclopropyl-8-methoxy-4-oxo-1,4-dihydro-3-quinolinecarboxylic acid] | 0.125 µg/mL | 0.06 µg/mL | 0.015 µg/mL | – | 0.125 µg/mL
COc1c(-c2cc3c(s2)CCCC3=NOCc2ccncc2)ccc2c(=O)c(C(=O)O)cn(C3CC3)c12 [Example 131, 1-cyclopropyl-8-methoxy-4-oxo-7-((4E/Z)-4-((4-pyridinylmethoxy)imino)-4,5,6,7-tetrahydro-1-benzothien-2-yl)-1,4-dihydro-3-quinolinecarboxylic acid] | 0.5 µg/mL | 1 µg/mL | 0.125 µg/mL | – | 0.5 µg/mL

Results, then the compound that gave them:

Antibacterial Activity (MIC's), B [1] | Antibacterial Activity (MIC's), D [2] | Antibacterial Activity (MIC's), E [3] | Antibacterial Activity (MIC's), A [4] | Antibacterial Activity (MIC's), F [5] | SMILES
2 µg/mL | 8 µg/mL | 1 µg/mL | 0.06 µg/mL | 0.5 µg/mL | COc1c(-c2cc3c(s2)CCC(=O)C3)ccc2c(=O)c(C(=O)O)cn(C3CC3)c12 [Example 53, 1-cyclopropyl-8-methoxy-4-oxo-7-(5-oxo-4,5,6,7-tetrahydro-1-benzothien-2-yl)-1,4-dihydro-3-quinolinecarboxylic acid]
1 µg/mL | 8 µg/mL | 1 µg/mL | 0.03 µg/mL | 0.5 µg/mL | COc1c(-c2cc3c(s2)CC(=O)CC3)ccc2c(=O)c(C(=O)O)cn(C3CC3)c12 [Example 59, 1-cyclopropyl-8-methoxy-4-oxo-7-(6-oxo-4,5,6,7-tetrahydro-1-benzothien-2-yl)-1,4-dihydro-3-quinolinecarboxylic acid]
0.25 µg/mL | 2 µg/mL | 0.125 µg/mL | 0.03 µg/mL | 0.125 µg/mL | COc1c(-c2cc3c(s2)C(=O)CCC3)ccc2c(=O)c(C(=O)O)cn(C3CC3)c12 [Example 61, 1-cyclopropyl-8-methoxy-4-oxo-7-(7-oxo-4,5,6,7-tetrahydro-1-benzothien-2-yl)-1,4-dihydro-3-quinolinecarboxylic acid]
